Measurements published in patent US8192962B2, “Processes for detecting toxic substances” (Daikin Industries, Ltd., priority 2001, dated 2012).

Tested on: Unknown protein yeast genes
Experiment: DNA chip mRNA expression in yeast, unknown protein yeast genes (Table 1)
Type: cell-based, Saccharomyces cerevisiae S288C
Procedure, shortened: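 First, S288C yeast grown in YPD at 25° C. are dosed in log phase with one toxicant (growth-inhibiting, not lethal) for 2 h. Next, total RNA is extracted and poly(A) mRNA isolated and reverse-transcribed with Cy3/Cy5-dUTP. Finally, whole-genome chip fluorescence is read relative to unexposed cells.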

Measured: The level of expressed mRNA in the presence of chemical substance/The level of expressed mRNA in the absence of chemical substance

CCCCCCCCCCCCc1ccc(S(=O)(=O)[O-])cc1.[Na+] [(17), sodium dodecylbenzosulfonate]
2.4: yeast gene YMR102C, incubated two hours with chemical substance
2.1: yeast gene YMR295C, incubated two hours with chemical substance | yeast gene YPL087W, incubated two hours with chemical substance
0.9: yeast gene YNL281W, incubated two hours with chemical substance
1.2: yeast gene YLR324W, incubated two hours with chemical substance | yeast gene YMR191W, incubated two hours with chemical substance | yeast gene YOL162W, incubated two hours with chemical substance
1.8: yeast gene YMR090W | yeast gene YNL156C, incubated two hours with chemical substance
1.3: yeast gene YLR149C, incubated two hours with chemical substance | yeast gene YMR107W, incubated two hours with chemical substance | yeast gene YOL071W, incubated two hours with chemical substance | yeast gene YOL117W, incubated two hours with chemical substance | yeast gene YPR151C, incubated two hours with chemical substance
1.6: yeast gene YKR091W, incubated two hours with chemical substance | yeast gene YLR054C, incubated two hours with chemical substance | yeast gene YLR350W, incubated two hours with chemical substance | yeast gene YNL115C, incubated two hours with chemical substance | yeast gene YOL082W, incubated two hours with chemical substance
1.1: yeast gene YML117W, incubated two hours with chemical substance | yeast gene YNL074C, incubated two hours with chemical substance | yeast gene YOL036W, incubated two hours with chemical substance | yeast gene YOL131W, incubated two hours with chemical substance | yeast gene YPL222W, incubated two hours with chemical substance
1.5: yeast gene YLR152C, incubated two hours with chemical substance | yeast gene YOL047C, incubated two hours with chemical substance | yeast gene YOR197W, incubated two hours with chemical substance
1.4: yeast gene YKL195W, incubated two hours with chemical substance | yeast gene YMR097C, incubated two hours with chemical substance | yeast gene YMR180C, incubated two hours with chemical substance | yeast gene YMR184W, incubated two hours with chemical substance | yeast gene YOL083W, incubated two hours with chemical substance | yeast gene YPL196W, incubated two hours with chemical substance | yeast gene YPL206C, incubated two hours with chemical substance
6.9: yeast gene YMR316W, incubated two hours with chemical substance
1.7: yeast gene YNL092W, incubated two hours with chemical substance | yeast gene YNL305C, incubated two hours with chemical substance | yeast gene YOL032W, incubated two hours with chemical substance | yeast gene YOR019W, incubated two hours with chemical substance
3.1: yeast gene YNL044W, incubated two hours with chemical substance
2.7: yeast gene YMR009W, incubated two hours with chemical substance | yeast gene YOL150C
1.0: yeast gene YLR194C, incubated two hours with chemical substance | yeast gene YLR387C, incubated two hours with chemical substance | yeast gene YLR460C | yeast gene YMR067C, incubated two hours with chemical substance | yeast gene YMR095C, incubated two hours with chemical substance | yeast gene YNL234W, incubated two hours with chemical substance | yeast gene YNR068C, incubated two hours with chemical substance | yeast gene YPR023C, incubated two hours with chemical substance
